What was measured:
Format in all cases: functional
[1] = tested on: Bacillus anthracis; test: Antibacterial activity against Bacillus anthracis Sterne 34F2 assessed as zone of inhibition by disc diffusion method
[2] = tested on: Escherichia coli; test: Antibacterial activity against beta-lactam resistant Escherichia coli BAA 2326 assessed as zone of inhibition by disc diffusion method; note: test concentration or dose not given here
[3] = tested on: Pseudomonas aeruginosa; test: Antibacterial activity against Pseudomonas aeruginosa ATCC 15422 assessed as zone of inhibition by disc diffusion method; note: test concentration or dose not given here
[4] = tested on: Staphylococcus aureus; test: Antibacterial activity against community acquired methicillin-resistant Staphylococcus aureus BAA 1747 assessed as zone of inhibition by disc diffusion method; note: test concentration or dose not given here
[5] = tested on: Staphylococcus aureus; test: Antibacterial activity against vancomycin-intermediate resistant Staphylococcus aureus Mu50 ATCC 700699 assessed as zone of inhibition by disc diffusion method; note: test concentration or dose not given here
[6] = tested on: Staphylococcus epidermidis; test: Antibacterial activity against Staphylococcus epidermidis ATCC 14990 assessed as zone of inhibition by disc diffusion method; note: test concentration or dose not given here
[7] = tested on: Acinetobacter baumannii; test: Antibacterial activity against Acinetobacter baumannii ATCC 19606 assessed as zone of inhibition by disc diffusion method; note: test concentration or dose not given here
[8] = tested on: Enterococcus faecalis; test: Antibacterial activity against vancomycin-susceptible Enterococcus faecalis ATCC 29212 assessed as zone of inhibition by disc diffusion method; note: test concentration or dose not given here
[9] = tested on: Staphylococcus aureus; test: Antibacterial activity against hospital acquired methicillin-resistant Staphylococcus aureus ATCC 43300 assessed as zone of inhibition by disc diffusion method; note: test concentration or dose not given here
[10] = tested on: Staphylococcus aureus; test: Antibacterial activity against methicillin-susceptible Staphylococcus aureus ATCC 25923 assessed as zone of inhibition by disc diffusion method; note: test concentration or dose not given here
[11] = tested on: Enterococcus faecium; test: Antibacterial activity against vancomycin-resistant Enterococcus faecium ATCC 700221 assessed as zone of inhibition by disc diffusion method; note: test concentration or dose not given here
[12] = tested on: Enterobacter cloacae; test: Antibacterial activity against Enterobacter cloacae ATCC 23355 assessed as zone of inhibition by disc diffusion method; note: test concentration or dose not given here
[13] = tested on: Staphylococcus aureus; test: Antibacterial activity against heterogeneous vancomycin-intermediate resistant Staphylococcus aureus Mu3 ATCC 700698 assessed as zone of inhibition by disc diffusion method; note: test concentration or dose not given here
[14] = tested on: Staphylococcus aureus; test: Antibacterial activity against vancomycin-resistant Staphylococcus aureus HIP11714 assessed as zone of inhibition by disc diffusion method; note: test concentration or dose not given here
[15] = tested on: Acinetobacter baumannii; test: Antibacterial activity against multidrug-resistant Acinetobacter baumannii BAA 1605 assessed as zone of inhibition by disc diffusion method; note: test concentration or dose not given here
[16] = tested on: Klebsiella pneumoniae; test: Antibacterial activity against multidrug-resistant Klebsiella pneumoniae ATCC 700603 assessed as zone of inhibition by disc diffusion method; note: test concentration or dose not given here

SMILES	diameter of the inhibition zone (DIZ) [1]	diameter of the inhibition zone (DIZ) [2]	diameter of the inhibition zone (DIZ) [3]	diameter of the inhibition zone (DIZ) [4]	diameter of the inhibition zone (DIZ) [5]	diameter of the inhibition zone (DIZ) [6]	diameter of the inhibition zone (DIZ) [7]	diameter of the inhibition zone (DIZ) [8]	diameter of the inhibition zone (DIZ) [9]	diameter of the inhibition zone (DIZ) [10]	diameter of the inhibition zone (DIZ) [11]	diameter of the inhibition zone (DIZ) [12]	diameter of the inhibition zone (DIZ) [13]	diameter of the inhibition zone (DIZ) [14]	diameter of the inhibition zone (DIZ) [15]	diameter of the inhibition zone (DIZ) [16]
c1ccc(CSSc2ccccn2)cc1	38 mm	0 mm	0 mm	20 mm	23 mm	38 mm	9 mm	14 mm	28 mm	26 mm	14 mm	0 mm	19 mm	30 mm	0 mm	0 mm
O=C(O)CCSSc1ccccn1	24 mm	0 mm	0 mm	14 mm	15 mm	10 mm	0 mm	0 mm	14 mm	16 mm	0 mm	0 mm	15 mm	21 mm	0 mm	0 mm
CC(C)CSSc1ccccn1	50 mm	0 mm	0 mm	0 mm	0 mm	40 mm	0 mm	0 mm	0 mm	0 mm	0 mm	0 mm	0 mm	0 mm	0 mm	0 mm
CCCCSSc1ccccn1	48 mm	0 mm	0 mm	0 mm	0 mm	22 mm	0 mm	15 mm	0 mm	0 mm	0 mm	9 mm	0 mm	0 mm	0 mm	0 mm
CC(C)C(C)SSc1ccccn1 (stereo not given)	21 mm	0 mm	0 mm	0 mm	0 mm	24 mm	0 mm	0 mm	0 mm	0 mm	0 mm	0 mm	0 mm	0 mm	0 mm	0 mm
CCC(C)SSc1ccccn1 (stereo not given)	23 mm	0 mm	0 mm	0 mm	0 mm	20 mm	0 mm	0 mm	0 mm	0 mm	0 mm	0 mm	0 mm	0 mm	0 mm	0 mm
CCSSc1ccccn1	50 mm	0 mm	0 mm	13 mm	0 mm	26 mm	18 mm	15 mm	12 mm	13 mm	0 mm	10 mm	0 mm	0 mm	12 mm	0 mm
CCCCCCCCCCSSc1ccccn1	28 mm	0 mm	0 mm	15 mm	11 mm	26 mm	0 mm	9 mm	14 mm	12 mm	9 mm	0 mm	0 mm	11 mm	0 mm	0 mm
CC(C)SSc1ccccn1	0 mm	0 mm	0 mm	0 mm	0 mm	13 mm	0 mm	0 mm	0 mm	0 mm	0 mm	0 mm	0 mm	0 mm	0 mm	0 mm
c1ccc(SSC2CCCCC2)nc1	26 mm	0 mm	0 mm	14 mm	0 mm	24 mm	0 mm	0 mm	12 mm	11 mm	0 mm	0 mm	18 mm	0 mm	0 mm	0 mm

— ChEMBL document CHEMBL4715813, “Allicin-inspired pyridyl disulfides as antimicrobial agents for multidrug-resistant Staphylococcus aureus” (Eur J Med Chem, 2018)
